Entries after “also recorded” stand apart in the source; their conditions may differ.
B1: IFN-β: type I interferon (PBL Assay), 50 ng/mL in cells, 1 μg per mouse (protein, listed as Homo sapiens)
chain: MTNKCLLQIALLLCFSTTALSMSYNLLGFLQRSSNFQCQKLLWQLNGRLEYCLKDRMNFDIPEEIKQLQQFQKEDAALTIYEMLQNIFAIFRQDSSSTGWNETIVENLLANVYHQINHLKTVLEEKLEKEDFTRGKLMSSLHLKRYYGRILHYLKAKEYSHCAWTIVRVEILRNFYFINRLTGYLRN

Assays:
BMDMs = assay: Immunoblot analysis of pyroptosis, apoptosis and necroptosis (PANoptosis) molecules in BMDMs; assay type: cell-based, mouse; conditions: for cleavage of caspase-1 and activation of GSDME, caspase-8, -3, -7 and MLKL: Adar1−/− BMDMs, NEI alone
Protocol: (§1) Cell Culture. Primary mouse bone marrow-derived macrophages (BMDMs) were generated from the bone marrow of wild-type and the indicated mutant mice. Cells were grown for 5-6 days in Iscove's Modified Dulbecco's Media (IMDM, Thermo Fisher Scientific) supplemented with 1% non-essential amino acids (Thermo Fisher Scientific), 10% fetal bovine serum (FBS, Biowest), 30% L929-conditioned media, and 1% penicillin and streptomycin (Thermo Fisher Scientific). BMDMs were then seeded into antibiotic-free media at a concentration of 1×10^6 cells into 12-well plates and incubated overnight.
(§2) Cell Stimulation. BMDMs were treated with 5 μM of KPT-330 (Selleckchem) or 5 ng/ml of leptomycin B (Sigma) in the presence and absence of 50 ng/mL of IFN-γ (Peprotech) or 50 ng/mL of IFN-β (PBL Assay) for 12 or 24 hours, as indicated.
Immunoblot Analysis. Cell lysates and culture supernatants were combined in caspase lysis buffer (containing 1× protease inhibitors (Roche), 1× phosphatase inhibitors (Roche), 10% NP-40, and 25 mM DTT) and 4× sample loading buffer (containing SDS and 2-mercaptoethanol) for immunoblot analysis of caspases. For immunoblot analysis of signaling components, supernatants were removed, and cells were washed once with Dulbecco's phosphate-buffered saline (DPBS, Thermo Fisher Scientific), followed by lysis in radioimmunoprecipitation assay (RIPA) buffer and sample loading buffer. Proteins were separated by electrophoresis through 8-12% polyacrylamide gels. Following electrophoretic transfer of proteins onto polyvinylidene fluoride (PVDF) membranes (Millipore), nonspecific binding was blocked by incubation with 5% skim milk, then membranes were incubated with primary antibodies against: caspase-3 (Cell Signaling Technology (CST), 1:1000), cleaved caspase-3 (CST, 1:1000), caspase-7 (CST, 1:1000), cleaved caspase-7 (CST, 1:1000), caspase-8 (AdipoGen, 1:1000), cleaved caspase-8 CST, 1:1000), caspase-11 (Novus Biologicals, 1:1000), caspase-1 (AdipoGen, 1:1000), GAPDH (CST, 1:1000), ZBP1 (AdipoGen, 1:1000), pMLKL (CST, 1:1000), tMLKL (Abgent, 1:1000), ADAR1 (Santa Cruz Biotechnology, 1:500), tRIPK1 (CST, 1:1000), GSDMD (Abcam, 1:1000), GSDME (Abcam, 1:1000), RIPK3 (CST, 1:1000), pSTAT1 (CST, 1:1000), tSTAT (CST, 1:1000), pIRF3 (CST, 1:1000), HA (Millipore, 1:1000), β-actin (Proteintech, 1:1000). Membranes were then washed and incubated with the appropriate horseradish peroxidase (HRP)-conjugated secondary antibodies (Jackson ImmunoResearch Laboratories; anti-rabbit, 1:5000; anti-mouse 1:5000; and anti-rat, 1:5000). Proteins were visualized using Immobilon Forte Western HRP Substrate (Millipore).

[1] = tested on: bone marrow-derived macrophages (BMDMs); assay: Cell death in BMDMs quantified by propidium iodide staining (real-time imaging); assay type: cell-based, mouse; conditions: for cell death compared with wild-type cells: Adar1−/− BMDMs; for cell death (PI staining): wild-type BMDMs, 24 hours, 5 μM KPT-330 or 5 ng/ml leptomycin B, with or without 50 ng/mL IFN-β or IFN-γ
Protocol: as §1, §2
Real-time Imaging for Cell Death. The kinetics of cell death were determined using the INCUCYTE® S3 (Essen BioScience) live-cell analysis system. BMDMs (5×10^5 cells/well) were seeded in 24-well tissue culture plates. Cells were treated with the indicated stimuli and stained with propidium iodide (PI; Life Technologies) following the manufacturer's protocol. The plate was scanned, and fluorescent and phase-contrast images (4 image fields/well) were acquired in real-time every 1 hour from 0 to 24 hours post-treatment. PI-positive dead cells are marked with a red mask for visualization. The image analysis, masking, and quantification of dead cells were done using the software package supplied with the INCUCYTE® imager.

endogenous dsRNA = assay: dsRNA by J2 antibody dot-blot analysis and immunofluorescence in BMDMs; assay type: cell-based, mouse; conditions: for amount of dsRNA: Adar1−/− BMDMs; for amount of dsRNA compared with media-treated cells: wild-type BMDMs
Protocol: Dot Blot Analysis. For dsRNA analysis, total RNA was isolated from the cells. Equal volumes (2 μl containing 1 μg of RNA) of the RNA were dotted on HYBONDO N+ membrane (GE Healthcare), dried and auto crosslinked in a UV Stratalinker 2400 (Stratagene) two times. The membrane was then blocked in 5% milk in TBST for 1 hour and probed with J2 antibody (1:1000, Scicons) at 4° C. overnight. On the next day, the membrane was washed with TBST 3 times and probed with secondary goat-anti-mouse HRP antibody in 5% milk at room temperature for 1 hour. The total […] was detected using methylene blue.
Immunofluorescence Staining. BMDMs were washed with phosphate-buffered saline (PBS) and fixed in 4% paraformaldehyde for 15 minutes at room temperature, followed by permeabilization for 10 minutes in 0.5% TRITON® X-100 (2-[4-(2,4,4-trimethylpentan-2-yl)phenoxy]ethanol). Cells were blocked in 5% normal goat serum (Life Technologies) for 1 hour at room temperature. Samples were incubated with anti-ZBP1 antibody (1:250 dilution, Adipogen) or anti-J2 antibody (1:100, Millipore) overnight at 4° C. Cells were then washed three times with PBS and incubated with ALEXA FLUOR® 647 fluorescent dye-conjugated antibody against mouse immunoglobulin G (1:250, Invitrogen) and counterstained with DAPI (4′,6-diamidino-2-phenylindol, Life Technologies) for 1 hour at room temperature. Cells were washed three times with PBS and imaged using a Leica SP8 confocal microscope.

[2] = tested on: endogenous retroelements (EREs); assay: RT-PCR expression of endogenous retroelements (EREs) in BMDMs; assay type: cell-based, mouse; conditions: wild-type BMDMs, NEI alone
Protocol: RT-PCR Analysis. Total RNA was extracted using TRIZOL® (Thermo Fisher Scientific) and converted into cDNA by using the High-Capacity cDNA Reverse Transcription Kit (Applied Biosystems). Real-time quantitative PCR was performed on an Applied Biosystems 7500 real-time PCR instrument with 2×SYBR™ Green (Applied Biosystems). For ERE expression analysis, 5 μg of total RNA extracted from the cells was dissolved in 46 μl of water and mixed with 3.5 μl NaCl (5 M stock). Then, 0.5 μl RNase A (10 mg/ml stock, Thermo Fisher Scientific) or water (as mock) was added to a total volume of 50 μl and mixed, followed by incubation at room temperature for 10 minutes. Then 1 ml acid-guanidinium-phenol based reagent sold under the tradename TRIZOL® was directly added to the mixture to terminate digestion, and the RNA was extracted. The RNA transcripts of selected endogenous retroelements (EREs) were measured by RT-PCR with GAPDH as an internal control. The ratios of (ERE/GAPDH)RNAase-A/(ERE/GAPDH)mock were calculated as fold enrichment.

B16-F10 melanoma cells = assay: B16-F10 melanoma model in mice; assay type: in vivo, mouse; conditions: wild-type mice; KPT-330 15 mg/kg oral, IFN-γ 10 μg or IFN-α/IFN-β 1 μg i.p., days 8, 10 and 13 after implantation
Protocol: Melanoma Model. The mouse melanoma cell line B16-F10 (ATCCR CRL-6322™) was cultured in a humidified, 5% CO2 incubator at 37° C., and grown in Dulbecco's Modified Eagle Medium (DMEM) with 10% FBS and 100 U/mL penicillin/streptomycin. Male and female 6-12-week-old mice were shaved on their lower back and engrafted with B16-F10 melanoma cells by subcutaneously injecting 1×10^6 cells in 200 μL PBS. Tumors were measured with digital calipers, and tumor volume was calculated using the formula: volume=(length×width^2)×½. For treatment with IFN-γ (Peprotech), each mouse was injected interperitoneally with 10 μg of IFN-γ in 100 μl of saline. For treatment with IFN-α or IFN-β, each mouse was injected interperitoneally with 1 μg of IFN-α or IFN-β. For treatment with KPT-330 (Selleckchem), each mouse was orally administered 300 μl of KPT-330 (15 mg/kg) suspended in 0.6% polyoxyalkylene ether sold under the tradename PLURONIC® (Gibco) and 0.6% polyvinylpyrrolidone. The treatment was given on days 8, 10 and 13 after tumor implantation.

ZBP1 = assay: Co-immunoprecipitation of ZBP1 with ADAR1 and RIPK3 in BMDMs; assay type: cell-based, mouse; conditions: wild-type BMDMs, 12 hours
Protocol: Co-Immunoprecipitation Assay. BMDMs (10×10^6 cells) were seeded into 10-cm dishes and treated with IFN-β or KPT-330 or combination of IFN-β and KPT-330 for 12 hours. Then, the cells were lysed in a buffer containing 20 mM Tris-HCl (pH 7.4), 100 mM NaCl, 30 mM KCl, and 0.1% NP-40. After centrifugation at 16,000 g for 10 minutes, the lysates were incubated with anti-ZBP1 antibody (AdipoGen) with protein A/G PLUS-Agarose (Santa Cruz Biotechnology) for overnight incubation at 4° C. After washing with the above buffer, the immunoprecipitated proteins were harvested by boiling in 1×SDS loading buffer at 100° C. for 5 minutes.

Molecule | cleavage of caspase-1 and activation of GSDME, caspase-8, -3, -7 and MLKL (BMDMs) | apoptosis: cleavage of caspase-8, -3 and -7 (BMDMs; wild-type BMDMs) | cleavage of GSDME (pyroptosis) (BMDMs; wild-type BMDMs) | phosphorylation of MLKL (necroptosis) (BMDMs; wild-type BMDMs) | cell death compared with wild-type cells [1] | cell death (PI staining) [1] | amount of dsRNA (endogenous dsRNA) | amount of dsRNA compared with media-treated cells (endogenous dsRNA) | expression of EREs (Mus-D, Line1, ERV-L) [2] | melanoma tumor growth / regression (B16-F10 melanoma cells) | interaction of ZBP1 with ADAR1 (ZBP1) | interaction of ZBP1 with RIPK3 (ZBP1) | expression of ZBP1 / ADAR1 (BMDMs; wild-type BMDMs)
O=C(/C=C\n1cnc(-c2cc(C(F)(F)F)cc(C(F)(F)F)c2)n1)NNc1cnccn1 [KPT-330, selinexor] | increased cleavage of caspase-1 and activation | induced apoptosis | displayed cleavage of GSDME | low level of phosphorylation of MLKL | increased cell death | low level of cell death | An increase in the amount of dsRNA | slightly increased the amounts of dsRNA | slightly upregulated | reduced melanoma growth | some interaction | some interaction | 
CCC(=C/[C@H](C)C/C=C/C(C)=C/[C@@H](C)C(=O)[C@@H](C)[C@H](O)[C@@H](C)C/C(C)=C/C(=O)O)/C=C/[C@@H]1OC(=O)C=C[C@@H]1C [LMB, Leptomycin B] | increased cleavage of caspase-1 and activation | induced apoptosis | displayed cleavage of GSDME | low level of phosphorylation of MLKL | increased cell death | low level of cell death | An increase in the amount of dsRNA | slightly increased the amounts of dsRNA | slightly upregulated |  |  |  | 
B1 |  |  |  |  |  |  |  |  |  |  | robust interaction |  | induced ZBP1 expression; also recorded: upregulated

From patent US20240277810A1, “INTERFERONS AND NUCLEAR EXPORT INHIBITORS FOR USE IN METHODS OF TREATING CANCER” (St. Jude Children's Research Hospital, Inc., priority 2021, published 2024)
